Experimental data as given in publication PMC4876444, “Two-Photon Enzymatic Probes Visualizing Sub-cellular/Deep-brain Caspase Activities in Neurodegenerative Models” (Scientific Reports, 2016).

Key:
[1] = not given; remark: listed apart in the source
[2] = tested on: caspase-3-like activities in STS-induced BV2 and HeLa cells; assay: TPFM live-cell imaging of STS-induced apoptotic cells; format: cell-based, mouse, human; conditions: BV2 (STS 2 μM) and HeLa (STS 1 μM) cells, 4 h STS, probe 24 μM 1 h; not in mock cells
Procedure: Figure 3 Bioimaging of active caspases in live cells. TPFM (λex = 760 nm; λem = 480-550 nm for all AAN-probes) of STS-induced (a) BV2 cells (2 μM, 4 h) and (b) HeLa cells (1 μM, 4 h) using C3RA/C8RA (24 μM, 1 h). Panels 3/6: cells pretreated with Z-VAD(OMe)-FMK (50 μM, 1 h) before STS addition. Panels 1/4: normal cells (DMSO). (c) WB analysis of cleaved caspase-3/-8 from (a,b). (d) TPFM of normal/apoptotic Hela cells imaged by C3RA (24 μM, up) or Ac-DEVD-AMC (40 μM, down; λem = 420–500 nm). Panels 1/3: normal cells. Panels 2/4: STS-induced cells (1 μM, 4 h). Bottom inset: bright field. Top inset: one-photon images (λex = 405 nm). (e) Real-time imaging of caspase-3/-8-like activities in live BV2 cells using 24 μM of C3RA (top)/C8RA (bottom) upon STS (2 μM) stimulation over 2 h. (f) Graphical quantification of RFU extracted from (e). (g) WB analysis of time-dependent caspase-3/-8 cleavage from STS-induced (2 μM) BV2 lysates. (h) WB analysis of time-dependent caspase-3/-7/-8 activation by detection of cleaved caspase-3/-7/-8 from lysates of HeLa cells stimulated with STS (2 μM). (i) RFU from real-time imaging of caspase-3-like activity in live HeLa cells with C3RA/C3RM/C3RE (24 μM, added 1 h before STS) upon STS (2 μM) stimulation. (j) Representative images (t = 60 min) from (i). (k) IF of STS-stimulated (2 μM, 2 h) HeLa cells by anti-caspase-3 (p17) antibody (red) with 3D projections of z-stack images at 90° view and merged with MitoTracker (green, left) or ER tracker (cyan, right). (l) TPFM of caspase-1 activation in primary cortical neurons upon glucose deprivation (GD, 8 h) followed by 1-h incubation with C1RB (24 μM) or C1FS (12 μM; λem = 450–550 nm). Inset: bright field images. NC: neuron cells incubated in normal neurobasal medium. Scale bar = 10 μm in all images.
NIH/3T3, HeLa and BV2 cell lines used in our experiments were cultured in DMEM medium supplemented with 10% (for NIH/3T3 and HeLa) or 5% (for BV2) fetal bovine serum (FBS), with 100.0 mg/L streptomycin and 100 IU/mL penicillin. […]

CC(=O)N[C@@H](CC(=O)O)C(=O)N[C@@H](CCC(=O)O)C(=O)N[C@H](C(=O)N[C@@H](CC(=O)O)C(=O)Nc1ccc2cc(C(C)=O)ccc2c1)C(C)C [C3RA, Ac-DEVD-AAN]
λem (emission maximum): 448 nm
δΦ (two-photon action cross-section) [1]: 2.9 GM
intracellular two-photon fluorescence after STS treatment [2]: strong intracellular fluorescence
